Patent US20190112580A1, “METHODS FOR TREATING CO[…] AND RELATED CULTURED CELLS” (priority 2017, published 2019)

Assays:
C2C12 myoblasts = details: mouse-derived C2C12 muscle cell lines; cited from earlier work
porcine satellite cells = details: 10 μM for 48 hours (Fan et al.); cited from earlier work
[1] = test system: satellite cell-derived myoblasts
Protocol: Myoblasts were grown in the high-serum medium until reaching a 60-70% confluence by visual inspection in 12-well plate culture dishes.
In a first set of wells, the myoblast cell preparations were placed in a high-serum medium until about 70% confluence was reached. […] These myoblast cell preparations were then switched to a low-serum medium (as described in Example 1) for four days to promote fusion and myotube formation.
In a second set of wells, the myoblast cell preparations were placed in a high-serum medium until about 70% confluence was reached. Then, the myoblast cell preparations were exposed to 5 μM of 5-azacytidine in the high-serum medium for 6 hours. These myoblast cell preparations were finally switched to a low-serum medium (as described in Example 1) for 4 days to promote fusion and myotube formation.
In a third set of wells, the myoblast cell preparations were placed in a high-serum medium until about 70% confluence was reached. These myoblast cell preparations were then exposed to 5 μM of 5-azacytidine in the high-serum medium for 24 hours. These myoblast cell preparations were finally switched to a low-serum medium (as described in Example 1) for 4 days to promote fusion and myotube formation.
In a fourth set of wells, the myoblast cell preparations were placed in a high-serum medium until about 70% confluence was reached.
In a fifth set of wells, the myoblast cell preparations were placed in a high-serum medium until about 70% confluence was reached. […] These same myoblast cell preparations were finally switched to a low-serum medium for 4 days to promote fusion and myotube formation.
FIG. 5, from left to right, depicts 5 columns with 5 different assays on myotube preparations differentiated from the myoblast cell preparations in the 12-well dishes. […] The second column reflects myotubes differentiated from a myoblast cell preparation from the second set of wells, which was exposed to 5 μM of 5-AZA in high serum medium for 6 hours. The third column reflects myotubes differentiated from a myoblast cell preparation from the third set of wells, which was exposed to 5 μM of 5-AZA in high serum medium for 24 hours. […] The immunostainings on the top row of FIG. 5 identifies lipid membranes (green color, WGA), nuclei (blue color, DAPI) and myotubes (red color, ACTA2). The gray-scale panels (middle row) show staining for nuclei only (DAPI). The gray-scale panels in the bottom row show staining for muscle fibers only (ACTA2).
Briefly, satellite cells were isolated from muscle biopsies obtained from TD children during surgical procedures, sorted using FACS, plated in gelatin coated dishes, and grown into proliferation medium in 12-well plates.

Aurora C kinase = Aurora C kinase (Homo sapiens, UniProt Q9UQB9); details: cited from earlier work
Sequence of Aurora C kinase (Q9UQB9 whole entry): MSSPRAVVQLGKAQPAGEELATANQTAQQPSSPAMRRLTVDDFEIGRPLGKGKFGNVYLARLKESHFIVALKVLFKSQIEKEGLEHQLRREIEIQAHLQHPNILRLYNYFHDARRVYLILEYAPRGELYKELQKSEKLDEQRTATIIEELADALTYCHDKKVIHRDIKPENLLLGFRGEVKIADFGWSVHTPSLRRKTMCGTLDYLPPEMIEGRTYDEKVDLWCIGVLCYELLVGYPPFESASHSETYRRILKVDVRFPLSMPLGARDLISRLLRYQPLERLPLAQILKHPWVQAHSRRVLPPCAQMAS

| Structure (SMILES) | muscle-specific gene expression, myogenesis and myotube formation (C2C12 myoblasts) | cell viability (porcine satellite cells) | myogenic response (porcine satellite cells) | myoblast fusion and myotube formation ([1]; CP and TD myoblasts, FIG. 5 and FIG. 6, 5 μM) | cell death and polyploidy (nuclei) ([1]; CP myoblasts, FIG. 5, 5 μM) | morphological changes to the membranes of the cells (WGA staining) ([1]; CP myoblasts, FIG. 5, 5 μM, 3 days) | morphological changes to ACTA2-negative cells and nuclei ([1]; TD myoblasts, FIG. 6, 5 μM) | cell death over time ([1]; myoblasts) | de-differentiation of myoblasts ([1]; myoblasts) | IC50 (Aurora C kinase) [nM] |
| --- | --- | --- | --- | --- | --- | --- | --- | --- | --- | --- |
| Nc1ncn([C@H]2C[C@H](O)[C@@H](CO)O2)c(=O)n1 [decitabine, 5-aza-2′-deoxycytidine] | promoted expression of muscle-specific genes, enhanced myogenesis and myotube formation | no change in cell viability | positive myogenic response |  |  |  |  |  |  |  |
| c1nc2nc(Nc3ccc(N4CCOCC4)cc3)nc(NC3CCCCC3)c2[nH]1 [Reversine, 2-(4-morpholinoanilino)-6-cyclohexylaminopurine] |  |  |  | shown to promote myoblast fusion and myotube formation | lower in number and suffer from polyploidy | causes morphological changes to the membranes of the cells | led to significant morphological changes to ACTA2-negative cells and nuclei in general | over time also leads to cell death | causes myoblasts to de-differentiate | 20 |
